Measurements: article PMC6804140, “Peptidomic Approach for the Identification of Peptides with Potential Antioxidant and Anti-Hyperthensive Effects Derived From Asparagus By-Products” (Molecules, 2019)
Ends that are not written are not given here.

Target: T1, ACE from rabbit lung (Oryctolagus cuniculus, UniProt P12822)
T1 construct: ACE from rabbit lung; purchased Sigma-Aldrich (St. Louis, MO, USA); host or cells: rabbit lung tissue
T1 sequence (P12822 34-1310): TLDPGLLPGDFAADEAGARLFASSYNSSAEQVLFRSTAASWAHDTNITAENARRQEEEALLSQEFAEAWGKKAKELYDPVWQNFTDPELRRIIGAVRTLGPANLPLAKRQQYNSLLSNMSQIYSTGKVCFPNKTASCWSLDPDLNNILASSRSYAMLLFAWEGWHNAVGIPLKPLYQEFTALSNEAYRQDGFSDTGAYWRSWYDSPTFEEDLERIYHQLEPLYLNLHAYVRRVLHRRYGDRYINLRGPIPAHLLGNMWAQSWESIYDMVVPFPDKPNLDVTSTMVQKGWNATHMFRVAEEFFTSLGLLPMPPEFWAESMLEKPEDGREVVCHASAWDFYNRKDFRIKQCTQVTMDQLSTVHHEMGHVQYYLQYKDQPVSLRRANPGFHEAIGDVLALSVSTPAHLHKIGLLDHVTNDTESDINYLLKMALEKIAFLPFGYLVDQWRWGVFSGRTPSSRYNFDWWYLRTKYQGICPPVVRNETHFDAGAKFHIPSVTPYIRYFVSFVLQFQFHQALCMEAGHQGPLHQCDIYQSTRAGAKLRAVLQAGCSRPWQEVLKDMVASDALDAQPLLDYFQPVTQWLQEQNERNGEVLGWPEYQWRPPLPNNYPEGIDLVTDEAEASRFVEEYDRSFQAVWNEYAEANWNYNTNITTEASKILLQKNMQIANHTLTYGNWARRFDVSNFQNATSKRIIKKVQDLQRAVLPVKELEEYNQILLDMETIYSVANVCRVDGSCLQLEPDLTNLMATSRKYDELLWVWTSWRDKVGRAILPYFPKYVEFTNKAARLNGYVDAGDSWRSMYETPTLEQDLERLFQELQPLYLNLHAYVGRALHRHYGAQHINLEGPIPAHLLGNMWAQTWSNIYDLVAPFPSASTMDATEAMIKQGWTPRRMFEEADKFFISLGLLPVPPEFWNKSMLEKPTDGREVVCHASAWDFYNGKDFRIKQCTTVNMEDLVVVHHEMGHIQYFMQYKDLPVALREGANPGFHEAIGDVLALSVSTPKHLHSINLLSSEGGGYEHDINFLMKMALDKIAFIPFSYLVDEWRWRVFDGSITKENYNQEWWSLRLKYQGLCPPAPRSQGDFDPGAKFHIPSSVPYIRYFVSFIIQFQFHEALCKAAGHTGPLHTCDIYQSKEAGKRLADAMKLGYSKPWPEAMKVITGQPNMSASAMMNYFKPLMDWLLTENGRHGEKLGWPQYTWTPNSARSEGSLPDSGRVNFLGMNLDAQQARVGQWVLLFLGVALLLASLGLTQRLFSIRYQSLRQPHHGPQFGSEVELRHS
Assay: ACE-inhibitory assay
Assay type: biochemical
Conditions: synthetic peptide (90%); pH 8.3, 37 °C, 90 min, 228 nm; fit Origin 9.0; ± SD in Table 1; read-out: EC50 value, ACE inhibition assay

Substance | EC50 [µM]
PDWFLLL [PDWFLLL] | 5.74 ± 2.35
ASQSIWLPGWL [ASQSIWLPGWL] | 4.02 ± 1.79
